The assay addresses H1047R PIK3CA enzyme (Homo sapiens, UniProt P42336, H1047R). Put plainly: ADP-Glo Biochemical PIK3CA Kinase Assay.
H1047R PIK3CA enzyme, sequence (P42336 whole entry H1047R): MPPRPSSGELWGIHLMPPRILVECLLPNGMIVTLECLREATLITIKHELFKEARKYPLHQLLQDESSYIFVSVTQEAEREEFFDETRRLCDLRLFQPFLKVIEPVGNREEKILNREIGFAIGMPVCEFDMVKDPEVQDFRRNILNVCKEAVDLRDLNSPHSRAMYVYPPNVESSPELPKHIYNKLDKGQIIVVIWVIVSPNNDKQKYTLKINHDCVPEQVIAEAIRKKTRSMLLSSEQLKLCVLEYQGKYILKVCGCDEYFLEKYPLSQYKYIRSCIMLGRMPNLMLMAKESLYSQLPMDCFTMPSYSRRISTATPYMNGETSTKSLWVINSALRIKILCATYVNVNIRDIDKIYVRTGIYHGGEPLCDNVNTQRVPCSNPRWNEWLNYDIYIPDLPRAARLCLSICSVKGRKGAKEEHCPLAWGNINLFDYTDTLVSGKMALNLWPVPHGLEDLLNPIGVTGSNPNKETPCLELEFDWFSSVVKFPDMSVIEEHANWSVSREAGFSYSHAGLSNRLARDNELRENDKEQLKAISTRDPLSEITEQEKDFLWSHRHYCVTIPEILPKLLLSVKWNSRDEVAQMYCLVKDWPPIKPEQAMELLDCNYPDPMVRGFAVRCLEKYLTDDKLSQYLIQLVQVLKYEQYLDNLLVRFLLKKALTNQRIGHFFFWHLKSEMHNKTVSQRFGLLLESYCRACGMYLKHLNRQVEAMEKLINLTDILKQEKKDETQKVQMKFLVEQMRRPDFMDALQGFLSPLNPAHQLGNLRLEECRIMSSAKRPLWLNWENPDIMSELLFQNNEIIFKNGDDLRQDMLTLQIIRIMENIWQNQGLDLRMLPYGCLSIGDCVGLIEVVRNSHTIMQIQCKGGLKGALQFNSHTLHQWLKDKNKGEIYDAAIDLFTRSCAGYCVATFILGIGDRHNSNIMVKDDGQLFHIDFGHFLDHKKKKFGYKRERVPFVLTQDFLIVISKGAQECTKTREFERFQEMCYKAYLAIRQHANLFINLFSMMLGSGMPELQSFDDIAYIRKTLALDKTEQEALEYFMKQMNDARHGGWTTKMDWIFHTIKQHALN
H1047R PIK3CA enzyme, sequence (P27986 whole entry partner): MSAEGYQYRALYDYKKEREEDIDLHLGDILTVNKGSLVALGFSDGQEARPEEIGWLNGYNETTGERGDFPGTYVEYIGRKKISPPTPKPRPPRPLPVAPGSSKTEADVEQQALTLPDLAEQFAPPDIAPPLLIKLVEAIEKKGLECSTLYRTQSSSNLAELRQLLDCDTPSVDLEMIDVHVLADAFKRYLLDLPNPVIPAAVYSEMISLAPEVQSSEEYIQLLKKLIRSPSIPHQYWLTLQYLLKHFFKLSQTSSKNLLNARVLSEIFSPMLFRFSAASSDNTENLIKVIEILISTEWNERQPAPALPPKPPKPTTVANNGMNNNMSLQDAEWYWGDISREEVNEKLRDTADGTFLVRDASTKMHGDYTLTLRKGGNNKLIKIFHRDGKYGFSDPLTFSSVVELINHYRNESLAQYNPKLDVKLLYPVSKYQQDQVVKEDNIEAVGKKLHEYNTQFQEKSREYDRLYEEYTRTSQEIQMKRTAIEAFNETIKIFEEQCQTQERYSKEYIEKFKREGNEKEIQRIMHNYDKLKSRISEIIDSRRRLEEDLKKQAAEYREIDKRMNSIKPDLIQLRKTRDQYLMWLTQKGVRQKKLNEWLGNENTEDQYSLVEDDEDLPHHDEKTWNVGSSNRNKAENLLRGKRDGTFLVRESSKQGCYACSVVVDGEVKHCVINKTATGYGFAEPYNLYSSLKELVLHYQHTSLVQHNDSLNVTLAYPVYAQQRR
In turn, `O=C(Nc1cc(-c2cncc(F)c2)nc2c1C(c1cc(F)ccc1Cl)NC2=O)c1cc(F)cc(C(F)(F)F)c1` (stereo not shown) [Compound I-585] came in with an IC50 of no more than 100 nM.
On to `CCn1cc(-c2cc(NC(=O)c3cc(F)cc(C(F)(F)F)c3)c3c(n2)C(=O)NC3c2cc(F)ccc2Cl)ccc1=O` (stereo not shown) [Compound I-586], for which the IC50 was no more than 100 nM.
The result for `Cn1cc(-c2cc(NC(=O)c3cc(F)cc(C(F)(F)F)c3)c3c(n2)C(=O)N[C@@H]3c2cc(F)ccc2Cl)ccc1=O` [Compound I-587] reads 1000 to 10000 nM; that for `Cn1cc(-c2cc(NC(=O)c3cc(F)cc(C(F)(F)F)c3)c3c(n2)C(=O)N[C@H]3c2cc(F)ccc2Cl)ccc1=O` [Compound I-588], no more than 100 nM; that for `O=C(Nc1cc(C2COC2)cc2c1[C@@H](c1cc(F)ccc1Cl)NC2=O)c1cc(F)cc(C(F)(F)F)c1` [Compound I-589], no more than 100 nM.
The same measure for `O=C(Nc1cc(C2COC2)cc2c1[C@H](c1cc(F)ccc1Cl)NC2=O)c1cc(F)cc(C(F)(F)F)c1` [Compound I-590]: no more than 100 nM.
The result for `CC(C)(O)C(=O)Nc1cc(NC(=O)c2cc(F)cc(C(F)(F)F)c2)c2c(c1)C(=O)NC2c1cc(F)ccc1Cl` (stereo not shown) [Compound I-591] reads no more than 100 nM.
Take `O=C(Nc1cc(NC(=O)C2(O)CC2)cc2c1C(c1cc(F)ccc1Cl)NC2=O)c1cc(F)cc(C(F)(F)F)c1` (stereo not shown) [Compound I-592]: the IC50 was no more than 100 nM.
The result for `CC(C)n1cc(-c2cc(NC(=O)c3cc(F)cc(C(F)(F)F)c3)c3c(n2)C(=O)NC3c2cc(F)ccc2Cl)ccc1=O` (stereo not shown) [Compound I-593] reads no more than 100 nM; that for `O=C1NC(c2cc(F)ccc2Cl)c2c(NC(=O)c3cc(F)cc4cn[nH]c34)cccc21` (stereo not shown) [Compound I-594], 500 to 1000 nM.
For `O=C1NC(c2cc(F)ccc2Cl)c2c(NC(=O)c3cc(F)cc4cn[nH]c34)cccc21` (stereo not shown) [Compound I-595], the IC50 lay in the range of 1000 to 10000 nM.
With `O=C(Nc1cccc2c1C(c1cc(F)ccc1Cl)NC2=O)c1cc(Cl)cc2c1OCC2` (stereo not shown) [Compound I-596], the IC50 is 1000 to 10000 nM.
`O=C(CC1CCc2ccccc21)Nc1cc(Br)cc2c1C(c1cc(F)ccc1Cl)NC2=O` (stereo not shown) [Compound I-599] yielded an IC50 of 10000 to 100000 nM.
The result for `O=C(CCc1ccccc1C(F)(F)F)Nc1cc(Br)cc2c1C(c1cc(F)ccc1Cl)NC2=O` (stereo not shown) [Compound I-600] reads 1000 to 10000 nM; that for `O=C(Nc1cc(Br)cc2c1C(c1cc(F)ccc1Cl)NC2=O)c1cccc2c1OCCC2` (stereo not shown) [Compound I-601], 10000 to 100000 nM; that for `O=C1NC(c2cc(F)ccc2Cl)c2c(NC(=O)c3cccc4cccnc34)cc(Br)cc21` (stereo not shown) [Compound I-602], 1000 to 10000 nM.
The result for `Cc1nc2ccccn2c1CC(=O)Nc1cc(Br)cc2c1C(c1cc(F)ccc1Cl)NC2=O` (stereo not shown) [Compound I-603] reads 10000 to 100000 nM.
`O=C1NC(c2cc(F)ccc2Cl)c2c(NC(=O)C3(c4ccccc4)CCCC3)cc(Br)cc21` (stereo not shown) [Compound I-604]: the IC50 is 1000 to 10000 nM.
Compound `O=C1NC(c2cc(F)ccc2Cl)c2c(NC(=O)C3CCOc4ccccc43)cc(Br)cc21` (stereo not shown) [Compound I-605] displayed an IC50 of 10000 to 100000 nM.
The same measure for `O=C1NC(c2cc(F)ccc2Cl)c2c(NC(=O)c3ccnc4ccc(Cl)cc34)cc(Br)cc21` (stereo not shown) [Compound I-606]: 10000 to 100000 nM.
Regarding `O=C(Nc1cc(Br)cc2c1C(c1cc(F)ccc1Cl)NC2=O)c1ccnc(C(F)(F)F)c1F` (stereo not shown) [Compound I-607], the half-maximal inhibitory concentration (IC50) is 10000 to 100000 nM.
The same measure for `CCc1cc(F)cc(C(=O)Nc2cc(Br)cc3c2C(c2ccccc2C)NC3=O)c1` (stereo not shown) [Compound I-608]: 500 to 1000 nM.
The compound `CC1(Nc2cc(NC(=O)c3cc(F)cc(C(F)(F)F)c3)c3c(c2)C(=O)NC3c2cc(F)ccc2Cl)COC1` (stereo not shown) [Compound I-610] had an IC50 of no more than 100 nM.
Consider `COCc1cc(NC(=O)c2cc(F)cc(C(F)(F)F)c2)c2c(c1)C(=O)NC2c1cc(F)ccc1Cl` (stereo not shown) [Compound I-611], for which the 50% inhibitory concentration (IC50) is no more than 100 nM.
The result for `O=C1NC(c2cc(F)ccc2C(F)F)c2c(NC(=O)c3nsc4ccccc34)cc(Br)cc21` (stereo not shown) [Compound I-612] reads no more than 100 nM; that for `O=C(Nc1cc(NC2COC2)cc2c1C(c1cc(F)ccc1Cl)NC2=O)c1cc(F)cc(C(F)(F)F)c1` (stereo not shown) [Compound I-613], no more than 100 nM; that for `CCn1cc(-c2cc(NC(=O)c3cc(F)cc(C(F)(F)F)c3)c3c(n2)C(=O)N[C@@H]3c2cc(F)ccc2Cl)ccc1=O` [Compound I-614], 1000 to 10000 nM.
As to `CCn1cc(-c2cc(NC(=O)c3cc(F)cc(C(F)(F)F)c3)c3c(n2)C(=O)N[C@H]3c2cc(F)ccc2Cl)ccc1=O` [Compound I-615], the IC50 is no more than 100 nM.
The same measure for `O=C(Nc1cc(Cl)nc2c1[C@H](c1cc(F)ccc1Cl)NC2=O)c1cc(F)cc(C(F)(F)F)c1` [Compound I-616]: 100 to 500 nM.
With `O=C(Nc1cc(Cl)nc2c1[C@@H](c1cc(F)ccc1Cl)NC2=O)c1cc(F)cc(C(F)(F)F)c1` [Compound I-617], the IC50 was no more than 100 nM.
The same measure for `CS(=O)(=O)Cc1cc(NC(=O)c2cc(F)cc(C(F)(F)F)c2)c2c(c1)C(=O)N[C@H]2c1cc(F)ccc1Cl` [Compound I-618]: no more than 100 nM; for `CS(=O)(=O)Cc1cc(NC(=O)c2cc(F)cc(C(F)(F)F)c2)c2c(c1)C(=O)N[C@@H]2c1cc(F)ccc1Cl` [Compound I-619]: 1000 to 10000 nM.
The result for `CC(=O)Cc1cc(NC(=O)c2cc(F)cc(C(F)(F)F)c2)c2c(c1)C(=O)NC2c1cc(F)ccc1C(F)F` (stereo not shown) [Compound I-620] reads no more than 100 nM; that for `CC(C)(O)Cc1cc(NC(=O)c2cc(F)cc(C(F)(F)F)c2)c2c(c1)C(=O)N[C@H]2c1cc(F)ccc1Cl` [Compound I-621], no more than 100 nM.
The compound `CC(C)(O)Cc1cc(NC(=O)c2cc(F)cc(C(F)(F)F)c2)c2c(c1)C(=O)N[C@@H]2c1cc(F)ccc1Cl` [Compound I-622] came in with an IC50 of 100 to 500 nM.
The same measure for `CC(=O)Cc1cc(NC(=O)c2cc(F)cc(C(F)(F)F)c2)c2c(c1)C(=O)N[C@@H]2c1cc(F)ccc1Cl` [Compound I-623]: no more than 100 nM; for `CC(=O)Cc1cc(NC(=O)c2cc(F)cc(C(F)(F)F)c2)c2c(c1)C(=O)N[C@H]2c1cc(F)ccc1Cl` [Compound I-624]: 100 to 500 nM.
For the compound `O=C(Nc1cc(NC(=O)C2CC2)cc2c1C(c1cc(F)ccc1Cl)NC2=O)c1cc(F)cc(C(F)(F)F)c1` (stereo not shown) [Compound I-625], the IC50 was no more than 100 nM.
With `O=C1NC(c2cc(F)ccc2Cl)c2c(NC(=O)c3csc4ccccc34)cc(Br)cc21` (stereo not shown) [Compound I-626], the IC50 is no more than 100 nM.
The same measure for `CC(C)(O)c1cc(F)cc(C(=O)Nc2cccc3c2C(c2cc(F)ccc2Cl)NC3=O)c1` (stereo not shown) [Compound I-627]: 10000 to 100000 nM.
The same measure for `O=C(Nc1cccc2c1C(c1cc(F)ccc1Br)NC2=O)c1cc(F)cc(C(F)(F)F)c1` (stereo not shown) [Compound I-628]: no more than 100 nM; for `O=C(Nc1cccc2c(=O)[nH]n(C3CCCCC3)c12)c1cc(F)cc(C(F)(F)F)c1` [Compound I-629]: 1000 to 10000 nM; for `O=C(Nc1cccc2c1C(c1ccnc(Cl)c1)NC2=O)c1cc(F)cc(C(F)(F)F)c1` (stereo not shown) [Compound I-630]: 10000 to 100000 nM.
The same measure for `O=C1NC(c2cc(F)ccc2Cl)c2c(NC(=O)C3CCCc4ccccc43)cc(Br)cc21` (stereo not shown) [Compound I-631]: 1000 to 10000 nM; for `O=C1NC(c2cc(F)ccc2Cl)c2c(NC(=O)C3(c4ccccc4)COC3)cc(Br)cc21` (stereo not shown) [Compound I-632]: 10000 to 100000 nM.
As for `O=C(Cn1ncc2ccccc21)Nc1cc(Br)cc2c1C(c1cc(F)ccc1Cl)NC2=O` (stereo not shown) [Compound I-633], the IC50 lay in the range of 10000 to 100000 nM.
